Key:
Assay type in all cases: cell-based, mouse
[1] = tested on: Ocy454 cells; assay: cAMP radioimmunoassay; conditions: 20 minutes; FIG. 14B
Procedure: Cells, in 96 well plates, were treated with indicated ligands for 20 minutes at room temperature in the presence of the phosphodiesterase inhibitor 3-isobutyl-1-methylxanthine (IBMX, Sigma I5879, 2 mM). The medium was then removed and cells were lysed in 50 mM HCl and transferred to −80C. Thawed lysates were diluted 1:5 with dH2O, and an 10 μl aliquot was assessed for cAMP content by radioimmunoassay using ^125I-cAMP analog as a tracer and unlabeled cAMP to generate a standard curve.

[2] = tested on: Ocy454 cells; assay: Immunoblotting of Ocy454 cell lysates (HDAC4/5, CRTC2, SIK2 phosphorylation and localisation); conditions: 10 uM, 90 minutes, compared to DMSO control; FIGS. 17 to 19
Procedure: The Ocy454 osteocyte cell line was treated for 90 minutes with the indicated compound at 10 uM dose (FIG. 17). Phospho-HDAC4 S246 levels were monitored by immunoblotting (top band) compared to DMSO control.
For all experiments, a single cell subclone of Ocy454 cells (17, 18) was used. Cells were passages in alpha-MEM supplemented with 10% heat-inactivated fetal bovine serum and 1% antibiotics (penicillin/streptomycin, Fungizone) at 33° C. with 5% CO2. Cells were plated at 50,000 cells/ml and allowed to reach confluency at 33° C. (typically in 2-3 days). At this point, cells were transferred to 37° C. for subsequent analysis. For immunoblotting, cells were always analyzed after culture at 37° C. for 7 days. For gene expression analysis, cells were analyzed after culture at 37° C. for 14 days. Mycoplasma contamination was ruled out by PCR. Cells were routinely assayed for SOST expression at 37° C. and examined for osteocytic morphology. […]

[3] = tested on: Ocy454 cells; assay: Gene expression in Ocy454 cells by RT-qPCR; conditions: 0.5 μM, 3.5 hours; FIG. 21
Procedure: In FIG. 21, Ocy454 cells (osteocyte cell line, also known at 6-9 cells) were cultured at 37° C. for 2 weeks to permit osteocyte differentiation. The cells were then treated with the indicated compound (0.5 μM) for 3.5 hours, and gene expression was analyzed by RT-qPCR. SOST expression was reduced by the indicated compounds. RANKL expression was increased by the indicated compounds. […] Therefore, these changes in gene expression may be due to on-target effects of the indicated compound.
For all experiments, a single cell subclone of Ocy454 cells (17, 18) was used. Cells were passages in alpha-MEM supplemented with 10% heat-inactivated fetal bovine serum and 1% antibiotics (penicillin/streptomycin, Fungizone) at 33° C. with 5% CO2. Cells were plated at 50,000 cells/ml and allowed to reach confluency at 33° C. (typically in 2-3 days). At this point, cells were transferred to 37° C. for subsequent analysis. For immunoblotting, cells were always analyzed after culture at 37° C. for 7 days. For gene expression analysis, cells were analyzed after culture at 37° C. for 14 days. Mycoplasma contamination was ruled out by PCR. Cells were routinely assayed for SOST expression at 37° C. and examined for osteocytic morphology.
Total RNA was extracted from cultured cells using RNeasy (Qiagen, Venlo, Netherlands) following the manufacturer's instructions. For long bone RNA isolation, mice were sacrificed and both femurs were rapidly dissected on ice. Soft tissue was removed and epiphyses cut. Bone marrow cells were then removed by serial flushing with ice-cold PBS. TRIzol (Life Technologies) was added and sampled were frozen at −80C and then homogenized. RNA was then extracted per the manufacturer's instructions, and further purified on RNeasy microcolumns prior to cDNA synthesis. RNA with A260/280 ratio <1.7 was not used for downstream analysis. For cDNA synthesis, 1 μg RNA was used in synthesis reactions according to the instructions of the manufacturer (Primescript RT, Takara). SYBR Green-based qPCR detection was performed using FastStart Universal SYBR Green (Roche, Basel, Switzerland) on a StepOne Plus (Applied Biosystems, Carlsbad, CA) thermocycler.

[4] = tested on: Ocy454 cells; assay: Immunoblotting of Ocy454 cell lysates (HDAC4/5, CRTC2, SIK2 phosphorylation and localisation)
[5] = tested on: Ocy454 cells; assay: Gene expression in Ocy454 cells by RT-qPCR; conditions: FIG. 5E

SMILES	cAMP levels [1]	Phospho-HDAC4 S246 levels [2]	RANKL expression [3]	SOST expression [3]	dose of optimal efficacy at the level of HDAC4/5 dephosphorylation ([4]; 60 minutes, FIG. 5C) [µM]	HDAC4/5 phosphorylation ([4]; FIGS. 5B and 5C)	dose of optimal efficacy at the level of gene expression ([5]; 4 hours) [µM]	RANKL expression [5]	SOST expression [5]	block of PTH-mediated decreased HDAC4/5 phosphorylation or SOST suppression ([4]; okadaic acid 300 nM plus PTH, FIGS. 13B and 13C)
COc1ccc(N2C(=O)N(c3c(C)cccc3C)Cc3cnc(Nc4ccc(N5CCN(C)CC5)c(OC)c4)nc32)c(OC)c1 [YKL-04-114]	without increasing cAMP levels	showed the most clear results across multiple replicates	most active in these experiments at reducing SOST and increasing RANKL	most active in these experiments at reducing SOST	~1	rapid, dose-dependent decreases in HDAC4/5 phosphorylation	~0.5	RANKL up-regulation	rapid and potent SOST suppression	
C=C1[C@@H](O)[C@@H]2O[C@]3(CC[C@H](/C=C/[C@@H](C)[C@@H]4CC(C)=C[C@@]5(O[C@H](C[C@@](C)(O)C(=O)O)CC[C@H]5O)O4)O3)CC[C@H]2O[C@@H]1[C@@H](O)C[C@H](C)[C@H]1O[C@@]2(CCCCO2)CC[C@H]1C [okadaic acid, reference compound]										did not block PTH-mediated decreased HDAC4/5 phosphorylation or SOST suppression

From patent publication US12121521B2, “Uses of salt-inducible kinase (SIK) inhibitors for treating osteoporosis” (The General Hospital Corporation, priority 2016, dated 2024)
